Results from US20110294794A1, “TREATMENT OF PROTEINOPATHIES USING A FARNESYL TRANSFERASE INHIBITOR” (Link Medicine Corporation, priority 2008, published 2011).
Entries after “also recorded” stand apart in the source; their conditions may differ.

Key:
p70 S6 kinase (S6K) = assay: p70S6K phosphorylation in SH-SY5Y cells; format: cell-based, human; conditions: FIG. 8f
LC3 mRNA = LC3 mRNA (qPCR) in differentiated SH-SY5Y cells; format: cell-based, human
Procedure: Cell culture and immunocytochemistry: SH-SY5Y cells were grown in DMEM medium supplemented with 10% FBS and 1% pen/strep at 37° C. and 5% CO2. Cells were differentiated with 10 μM retinoic acid for 48 hr, then treated with the either rapamycin (100 nM or 1 μM) or with 100 nM of either LNK-754-TS or Tipifarnib for 48-72 hr. Cells were then fixed with 4% paraformaldehyde and stained for LC3 (Novus biological, NB100-2331, dilution 1:800) followed by secondary Alexa-564 anti-Rabbit (A-11011).
(§1) Quantitative real-time PCR: Gene expression profiles were done by qPCR on series of known autophagy genes. RNA was extracted with Tri-reagent (Sigma), and cDNAs generated using iScript (Biorad). qPCR analysis was carried out in a 96 well plate using an iCycler (BioRad, Hercules, Calif.), and iQ SYBR Green Supermix (Biorad) according to the manufacturer's specifications.
Such increases in LC3 mRNA levels are associated in the literature with stimulation of macroautophagy. This supports the hypothesis that at doses as low as 1 nM in this in vitro system there is stimulation of autophagy in these cells.
Autophagy was measured in a neuroblastoma cell culture system by three distinct approaches: quantitation of autophagy-related mRNA's, immunofluorescence microscopy of autophagosomes, and biochemical detection of the microtubule-associated protein 1 light chain 3 (LC3) a key protein that is required for autophagosome formation. Differentiated human neuroblastoma cells (SH-SY5Y) were treated for 72 hr with LNK-754-TS (0.01-100 nM), Zarnestra® (also referred to herein as tipifarnib) (100 nM) or rapamycin (1 μM).

TAU441 transgenic mice = assay: Porsolt forced swim task in TAU441 transgenic mice; format: in vivo, mouse
Text: Tests relevant to depression-like behaviors in rodents are primarily stress-induced reductions in avoidance or escape, termed behavioral despair. One of the most widely used animal tests for depression is the Porsolt forced swim task (Porsolt et al., Arch. Int. Pharmacodyn. Ther. 229(2):327-36, 1977; Porsolt et al., Eur. J. Pharmacol. 47(4):379-91, 1978). This study was designed to evaluate the effects of treatment with LNK-754 on behavior of TAU441 transgenic mice. At start of the treatment, the animals were 5 months old. Untreated non-transgenic animals of the same age were tested and sacrificed serving as the baseline group. Mice received vehicle or LNK-754-TS at a dose of 0.09 mg per kg, 7 days a week for 90 days. In the last week of the treatment period and before sacrifice, mice were evaluated using the Porsolt forced swim task (FIG. 10B).

LC3-II = LC3-II protein level (autophagic flux) in SH-SY5Y cells with or without bafilomycin A1; format: cell-based, human
Text: Data are represented as mean+/−SEM with statistical significance by paired student's t-test (n=4, p<0.05).
The observed increase in LC3-positive autophagosomes could result, in principle, from either an increased flux through the autophagy pathway or decreased autophagosome degradation (Pankiv, S., et al. J Biol Chem 282, 24131-24145 (2007); Kamada, Y., et al. J Cell Biol 150, 1507-1513 (2000)). […] In order to ascertain an increase in autophagic flux, cells were co-treated with LNK-754-TS and an inhibitor of autophagosome-lysosome fusion, bafilomycin A1 (10 nM). Bafilomycin treatment alone caused a 100% increase in the amount of LC3-II, consistent with the fact that it inhibits autophagosome degradation (FIG. 8c).
(§2) The mechanism of autophagy stimulation by LNK-754-TS appears distinct from that of the drug rapamycin. Rapamycin is a well-characterized autophagy stimulator that acts through inhibition of mTOR, a kinase involved in nutrient signaling and regulation of cell growth and survival. […] To further contrast the mechanism of autophagy stimulation by LNK-754-TS to that of rapamycin, a collection of mRNA transcripts of autophagy proteins were measured (FIG. 8d). Selected mRNAs from untreated SH-SY5Y cells were compared to mRNAs from cells treated with LNK-754-TS (100 nM), tipifarnib (100 nM), or rapamycin (1 μM).

p62 mRNA = p62 mRNA in SH-SY5Y cells; format: cell-based, human; conditions: 100 nM (FIG. 8e)
Procedure: as §1

Aβ = assay: h-APPsl transgenic mouse, Aβ immunoreactivity and extracted Aβ; format: in vivo; conditions: 0.9 mg/kg once every 24 hr, three months
[1] = Pharmacokinetics of LNK-754-TS in mice, oral administration; format: in vivo, mouse; conditions: 9 mg/kg, 20% beta-cyclodextrin
Text: In the experimental data represented in Table 2A, a different method of drug delivery is used (oral) than in the experiment represented in FIG. 3. The best way to compare the relative coverage of the two delivery methods (oral and continuous infusion) is by comparing area-under-the-curve (AUC) values. We can compare the calculated AUC values for the continuous infusion oncology study presented in FIG. 3 and the AUC values associated with the synuclein model doses in the table. […] The AUCs of orally dosed LNK-754-TS at 0.9 mg/kg and at 0.09 mg/kg QD are 34.6 and […], respectively.
The pharmacokinetic profiles of LNK-754-TS and Zarnestra® were analyzed using methods known in the art. The results are shown in FIGS. 13-14 and the tables below.

Atg1 = assay: mRNA levels of autophagy-related genes (Atg1) in SH-SY5Y cells; format: cell-based, human; conditions: 100 nM (FIG. 8d)
Procedure: as §1, §2

[2] = 0.09 mg/kg once every 24 hr, 90 days

## C#Cc1cccc(-c2cc(=O)n(C)c3ccc([C@](O)(c4ccc(Cl)cc4)c4cncn4C)cc23)c1 [LNK-754-TS, (R)-6-[(4-chlorophenyl)-hydroxyl-(1-methyl-1-H-imidazol-5-yl)-methyl]-4-(3-ethynylphenyl)-1-methyl-2-(1H)-quinonlinone (2S,3S)-dihydroxybutanedioate]
p70 S6 kinase (S6K)
  decrease / inhibition of p70S6K phosphorylation: did not inhibit
LC3 mRNA; 0.01-100 nM, 72 hr (FIG. 8a)
  LC3 mRNA level: upregulated; also recorded: increased
LC3 mRNA; 72 hr, vs. Zarnestra and rapamycin
  potency of LC3 transcript upregulation relative to the other two compounds: most potently
LC3 mRNA; doses between 1 and 100 nM, 72 hours (FIG. 4)
  levels of mRNA of LC3: significant increases
TAU441 transgenic mice; 0.09 mg/kg once every 24 hours
  depressed phenotype: significantly ameliorated
TAU441 transgenic mice; [2]
  floating behavior vs. vehicle: significantly less; also recorded: decreasing; also recorded: decreased
  forced swim behavior compared with non-transgenic mice: behaved similar to non-transgenic mice; also recorded: behaved similarly to non-tg mice; also recorded: levels equivalent to that seen in non-transgenic mice
  struggling behavior vs. vehicle: higher percentage; also recorded: increasing; also recorded: significantly increased
LC3-II; 100 nM in the presence of Bafilomycin A1 (10 nM)
  LC3-II protein level: increased
LC3-II; treatment alone, without bafilomycin
  accumulation of LC3-I or LC3-II: did not cause accumulation
p62 mRNA
  p62 mRNA: upregulation; also recorded: increased
Aβ
  cortical Aβ immunoreactivity and Aβ extracted in the insoluble fractions: did not significantly reduce
[1]; BID day 1
  Cmax: 1385 ng/mL
[1]; BID day 5
  Cmax: 1485 ng/mL
Atg1
  mRNA levels of a set of autophagy-related genes: unaffected
